# Experimental data published in US20170023576A1, “NOTCH3 ANTIBODIES AND USES THEREOF” (ONCOMED PHARMACEUTICALS, INC., priority 2014, published 2017).
# Columns and labels:
# [1] = test system: OMP-PN08 pancreatic tumor; assay: Pancreatic tumor xenograft growth in vivo, OMP-PN08; design: species or system human; conditions: OMP-PN8 tumors in NOD/SCID mice; antibody 40 mg/kg every other week, gemcitabine 20 mg/kg weekly
# Protocol: (§1) Ten primary patient-derived pancreatic tumor xenografts were tested for efficacy in response to anti-Notch2/3 antibody OMP-59R5 in combination with gemcitabine. These tumors were OMP-PN04, OMP-PN07, OMP-PN08, OMP-PN11, OMP-PN13, OMP-PN16, OMP-PN17, OMP-PN21, OMP-PN23, and OMP-PN25.
# In one representative example, OMP-PN8 pancreatic tumor cells (2×10^4) were injected into NOD/SCID mice. Tumors were allowed to grow for 22 days until they reached an average volume of 125 mm^3. Tumor-bearing mice were randomized into 4 groups and treated with control antibody, anti-NOTCH2/3 antibody OMP-59R5, gemcitabine, or a combination of OMP-59R5 and gemcitabine. Antibodies were dosed every other week at 40 mg/kg. Gemcitabine was dosed weekly at 20 mg/kg. Tumor growth was monitored and tumor volumes were measured with electronic calipers on the indicated days post-treatment.
# [2] = test system: OMP-PN11 pancreatic tumor; assay: Pancreatic tumor xenograft growth in vivo, OMP-PN11; design: species or system human; conditions: OMP-PN11 tumors in NOD/SCID mice; antibody 40 mg/kg every other week, gemcitabine 20 mg/kg weekly
# Protocol: as §1
# In a second representative example, OMP-PN11 pancreatic tumor cells (5×10^4) were injected into NOD/SCID mice. Tumors were allowed to grow for 21 days until they reached an average volume of 120 mm^3. Tumor-bearing mice were randomized into 4 groups and treated with control antibody, OMP-59R5, gemcitabine, or a combination of OMP-59R5 and gemcitabine. Antibodies were dosed every other week at 40 mg/kg. Gemcitabine was dosed weekly at 20 mg/kg. […] Tumor growth was monitored and tumor volumes were measured with electronic calipers on the indicated days post-treatment.
substance,measurement,setting,value
"OMP-59R5: anti-NOTCH2/3 therapeutic antibody; heavy chain variable region SEQ ID NO:18, light chain variable region SEQ ID NO:26",tumor growth (FIG. 1A),[1],significantly inhibited tumor growth
same,tumor growth (FIG. 1B),[2],no effect
